18 molecules from ChEMBL document CHEMBL3779839, “Identification of Novel GPR55 Modulators Using Cell-Impedance-Based Label-Free Technology” (J Med Chem, 2016) can be followed below.

Calls of active or inactive are those of the source. The calls are words filed in the database; no cut-off is given here. Some results are limits rather than exact numbers.

The target of test [1] is T1, G-protein coupled receptor 55 (Homo sapiens, UniProt Q9Y2T6). As to the kind of experiment: Agonist activity at recombinant human GPR55 expressed in HEK293 cells at 1 uM after 5 mins by xCELLigence assay relative to LPI. It is filed as cell-based.
T1 sequence (Q9Y2T6 whole entry): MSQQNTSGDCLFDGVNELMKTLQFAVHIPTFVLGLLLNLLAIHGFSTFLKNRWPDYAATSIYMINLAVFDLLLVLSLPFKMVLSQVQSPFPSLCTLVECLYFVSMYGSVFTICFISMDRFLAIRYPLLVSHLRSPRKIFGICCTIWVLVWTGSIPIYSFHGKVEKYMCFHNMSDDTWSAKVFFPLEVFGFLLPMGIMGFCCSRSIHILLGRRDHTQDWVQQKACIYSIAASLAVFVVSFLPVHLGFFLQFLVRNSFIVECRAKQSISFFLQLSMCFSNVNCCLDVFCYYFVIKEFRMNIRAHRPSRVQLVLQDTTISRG
The test system of test [2] is HEK293. As to the kind of experiment: Effect on non-transfected HEK293 cells at 1 nM to 10 uM after 5 mins by xCELLigence assay. It counts as functional, cell-based. The following applies: Homo sapiens.
Test [3] deals with T1, G-protein coupled receptor 55. The experiment in a line: Antagonist activity at recombinant human GPR55 expressed in HEK293 cells assessed as LPI mediated receptor activation by measuring LPI Emax at 1 uM after 5 mins by xCELLigence assay (reference value: 99 to 104%). It counts as cell-based.
The next test concerns the target Cannabinoid receptor 1 (Homo sapiens, UniProt P21554). As to the kind of experiment: Displacement of [3H]CP55940 from human CB1 receptor expressed in HEK293 EBNA cells after 90 mins by liquid scintillation spectrophotometer. It counts as cell-based.
Test [4] has as its target T2, Cannabinoid receptor 2 (Homo sapiens, UniProt P34972). As to the kind of experiment: Displacement of [3H]CP55940 from human CB2 receptor expressed in HEK293 EBNA cells after 90 mins by liquid scintillation spectrophotometer. It counts as cell-based.
The target in test [5] is T1, G-protein coupled receptor 55. The experiment in a line: Agonist activity at recombinant human GPR55 expressed in HEK293 cells after 5 mins by xCELLigence assay. It counts as cell-based.
Test [6] has as its target T2, Cannabinoid receptor 2. The experiment in a line: Displacement of [3H]CP55940 from human CB2 receptor expressed in HEK293 EBNA cells at 40 uM after 90 mins by liquid scintillation spectrophotometer. It is filed as cell-based.
The target of test [7] is T1, G-protein coupled receptor 55. The experiment in a line: Partial agonist activity at recombinant human GPR55 expressed in HEK293 cells after 5 mins by xCELLigence assay. It counts as cell-based.
For test [8] the target is unchanged. The experiment in a line: Partial agonist activity at recombinant human GPR55 expressed in HEK293 cells at 1 uM after 5 mins by xCELLigence assay relative to LPI. It counts as cell-based.
In test [9] the test system is HEK293. The experiment in a line: Effect on non-transfected HEK293 cells at 10 uM after 5 mins by xCELLigence assay. It counts as functional, cell-based. The following applies: Homo sapiens.
For test [10], the target named is T2, Cannabinoid receptor 2. The experiment in a line: Agonist activity at human CB2 receptor expressed in CHO cells after 30 mins by [35S]-GTPgammaS binding assay relative to control.

T2 sequence (P34972 whole entry): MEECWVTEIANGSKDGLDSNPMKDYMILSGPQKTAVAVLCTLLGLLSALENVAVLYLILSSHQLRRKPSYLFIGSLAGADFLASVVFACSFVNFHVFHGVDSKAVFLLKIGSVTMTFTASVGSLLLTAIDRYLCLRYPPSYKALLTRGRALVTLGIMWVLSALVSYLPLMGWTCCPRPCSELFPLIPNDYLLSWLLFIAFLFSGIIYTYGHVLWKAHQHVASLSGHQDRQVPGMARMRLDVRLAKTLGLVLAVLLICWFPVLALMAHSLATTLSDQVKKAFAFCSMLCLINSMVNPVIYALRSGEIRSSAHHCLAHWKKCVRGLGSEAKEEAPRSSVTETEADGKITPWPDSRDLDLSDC
Chain of Cannabinoid receptor 1 (P21554 whole entry): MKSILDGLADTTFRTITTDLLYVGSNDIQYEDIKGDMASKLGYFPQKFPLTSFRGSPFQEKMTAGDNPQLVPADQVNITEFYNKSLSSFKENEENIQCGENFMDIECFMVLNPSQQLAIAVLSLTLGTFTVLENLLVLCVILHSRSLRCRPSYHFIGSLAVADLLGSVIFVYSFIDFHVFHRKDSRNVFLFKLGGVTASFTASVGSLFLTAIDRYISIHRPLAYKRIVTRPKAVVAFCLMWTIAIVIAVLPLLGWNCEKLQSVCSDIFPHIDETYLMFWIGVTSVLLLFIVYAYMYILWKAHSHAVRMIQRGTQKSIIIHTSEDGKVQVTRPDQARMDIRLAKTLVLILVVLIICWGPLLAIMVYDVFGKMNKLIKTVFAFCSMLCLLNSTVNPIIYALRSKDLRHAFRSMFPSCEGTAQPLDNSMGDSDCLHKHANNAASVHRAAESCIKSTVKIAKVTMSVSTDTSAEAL

As a reminder, the Emax is the greatest response seen or fitted, relative to the assay's reference. In general, Ki refers to the dissociation constant of the complex between target and ligand, obtained from inhibition or displacement. Take `COc1ccc2c(c1)OC(C)(C)c1cnn(CCN3CCN(C(=O)c4ccco4)CC3)c1-2`: the Emax in test [1] is < 25%; in test [3], 97%. The outcome in the test with HEK293 [2] was inactive. In addition, the Ki at Cannabinoid receptor 1 is > 40 µM.

On to `COc1ccc2c(c1)OC(C)(C)c1cnn(CNC(=O)CN3CCN(c4cccc(C)c4C)CC3)c1-2`, for which the Ki at Cannabinoid receptor 2 [4] and at Cannabinoid receptor 1 was > 40 µM in each case. Besides, the outcome in [5] was inactive.

One may read the inhibition as how much of the control response was suppressed. The molecule `COc1ccc2c(c1)OC(C)(C)c1cnn(CNC(=O)CN3CCN(c4ccccc4)CC3)c1-2` had an inhibition at Cannabinoid receptor 2 [6] of 70%. In addition, the maximal response (Emax) in [1] is < 25%; in [3] it was 97%. Further, the outcome (in the test on HEK293 [2]; in [5]) was inactive. Also, the figures for the Ki on Cannabinoid receptor 2 [4] and at Cannabinoid receptor 1 were 4.92 µM and > 40 µM, respectively.

In general, EC50 refers to the concentration that produces a half-maximal response. For `COc1ccc2c(c1)OC(C)(C)c1cn(CCN3CCN(C(=O)C4CCCO4)CC3)nc1-2` (stereo not drawn), the inhibition on Cannabinoid receptor 2 [6] was 70%. Also, the result in the test with HEK293 [2] was inactive. In addition, in [7], the EC50 was 0.0004 µM. The results for the Ki at Cannabinoid receptor 2 [4] and on Cannabinoid receptor 1 were 1.07 µM and > 40 µM, respectively. Besides, the Emax in test [3] worked out at 102%; in test [8] it was 51%.

With `COc1ccc2c(c1)OC(C)(C)c1cnn(CCN3CCN(C(=O)c4cccs4)CC3)c1-2`, the figures for the Emax in test [1] and in [3] were < 25% and 99%, respectively. The outcome in the test on HEK293 [2] was inactive. Moreover, the Ki on Cannabinoid receptor 1 is > 40 µM.

Turning to `COc1ccc2c(c1)OC(C)(C)c1cnn(CCN3CCN(C(=O)c4ccccc4)CC3)c1-2`, the Ki on Cannabinoid receptor 1 is > 40 µM.

As for `COc1ccc2c(c1)OC(C)(C)c1cn(CCN3CCN(C(=O)COc4ccccc4)CC3)nc1-2`, the result in the test with HEK293 [2] was inactive. Moreover, the Ki on Cannabinoid receptor 2 [4] and on Cannabinoid receptor 1 was > 40 µM each time. In addition, the Emax is 100% in [3] and 52% in [8].

At Cannabinoid receptor 2 [6], `COc1ccc2c(c1)OC(C)(C)c1cn(CCN3CCN(C(=O)c4ccccc4)CC3)nc1-2` showed an inhibition of 70%. Moreover, in the test on HEK293 [2], the result was inactive. The EC50 in [7] is 0.0006 µM. Moreover, the Ki on Cannabinoid receptor 2 [4] was 3.6 µM; on Cannabinoid receptor 1, > 40 µM. The Emax in [3] was 105%; in [8], 51%.

Turning to `COc1ccc2c(c1)OC(C)(C)c1cn(CCN3CCN(C(=O)C(C)(C)C)CC3)nc1-2`, the inhibition on Cannabinoid receptor 2 [6] amounted to 70%. For the same molecule, the outcome in the test on HEK293 [2] was inactive. The values for the Ki at Cannabinoid receptor 2 [4] and at Cannabinoid receptor 1 were 6.39 µM and > 40 µM, respectively. The Emax in [3] was determined as 100%; in [8] it was 49%.

`COc1ccc2c(c1)OC(C)(C)c1cn(CNC(=O)CN3CCN(c4ccccc4)CC3)nc1-2` returned an inhibition on Cannabinoid receptor 2 [6] of 70%. In addition, the Emax in [1] is < 25%; in test [3] it was 94%. Also, the result (in the test on HEK293 [2]; in test [5]) was inactive. The Ki was 1.58 µM on Cannabinoid receptor 2 [4] and > 40 µM at Cannabinoid receptor 1.

For the molecule `CCCCCCCCCCCCCCCCCC(=O)OC[C@@H](O)COP(=O)(O)O[C@@H]1[C@H](O)[C@H](O)[C@@H](O)[C@H](O)[C@H]1O`, the result with HEK293 [9] was Active. Further, in [5], the EC50 is 0.00282 µM.

For `COc1ccc2c(c1)OC(C)(C)c1cn(CCN3CCN(C(=O)C4CCCCC4)CC3)nc1-2`, at Cannabinoid receptor 2 [6], the inhibition was 70%. In addition, in the test on HEK293 [2], the outcome was inactive. Besides, the Ki is 0.523 µM on Cannabinoid receptor 2 [4] and > 40 µM at Cannabinoid receptor 1. The Emax was found to be 99% in [3] and 47% in test [8].

`COc1ccc2c(c1)OC(C)(C)c1cn(CNC(=O)CN3CCN(c4cccc(C)c4C)CC3)nc1-2`: the Emax was < 25% in [1] and 102% in test [3]. Moreover, the result (with HEK293 [2]; in test [5]) was inactive. Also, the Ki at Cannabinoid receptor 2 [4] and on Cannabinoid receptor 1 was > 40 µM throughout.

For the molecule `COc1ccc2c(c1)OC(C)(C)c1cnn(CNC(=O)CN3CCN(c4ccccc4OC)CC3)c1-2`, the Ki at Cannabinoid receptor 2 [4] and at Cannabinoid receptor 1 was > 40 µM each time. For the same molecule, in [5], the result was inactive.

Regarding `COc1ccc(N2CCN(CC(=O)NCn3ncc4c3-c3ccc(OC)cc3OC4(C)C)CC2)cc1`, the Emax is < 25% in test [1] and 80% in [3]. Also, the result (in the test on HEK293 [2]; in test [5]) was inactive. In addition, the Ki at Cannabinoid receptor 2 [4] and on Cannabinoid receptor 1 was > 40 µM each time.

Consider `COc1ccc2c(c1)OC(C)(C)c1cn(CCN3CCN(C(=O)c4cccs4)CC3)nc1-2`, for which, on Cannabinoid receptor 2 [6], the inhibition was 70%. Further, the result in the test on HEK293 [2] was inactive. Moreover, the results for the Ki on Cannabinoid receptor 2 [4] and at Cannabinoid receptor 1 were 0.0154 µM and > 40 µM, respectively. Moreover, the response at Cannabinoid receptor 2 [10] was half-maximal at 0.392 µM (EC50). Also, the Emax in test [3] was determined as 96%; in test [8], 45%.

For `COc1ccc2c(c1)OC(C)(C)c1cn(CCN3CCN(C(=O)c4ccco4)CC3)nc1-2`, at Cannabinoid receptor 2 [6], the inhibition is 70%. Also, the outcome in the test with HEK293 [2] was inactive. Further, the Ki at Cannabinoid receptor 2 [4] is 0.698 µM; on Cannabinoid receptor 1, > 40 µM. For the same molecule, the figures for the Emax in test [3] and in [8] were 106% and 43%, respectively.

Take `COc1ccc2c(c1)OC(C)(C)c1cn(CNC(=O)CN3CCN(c4ccccc4OC)CC3)nc1-2`: in the test on HEK293 [2], the outcome was inactive. The EC50 in test [7] is 0.00636 µM. The Ki on Cannabinoid receptor 2 [4] and on Cannabinoid receptor 1 was > 40 µM each time. Also, the Emax in test [3] amounted to 90%; in [8], 51%.
